Values of other authors, collected in US20130296280A1, “EUTECTIC MIXTURE COMPRISING CELECOXIB AND POLOXAMER” (priority 2012, published 2013).

Conditions: oral celecoxib; Drug Metab Dispos. 2000:28:308-314

Cc1ccc(-c2cc(C(F)(F)F)nn2-c2ccc(S(N)(=O)=O)cc2)cc1 [celecoxib, 4-[5-(4-methylphenyl)-3-(trifluoromethyl)-1H-pyrazol-1-yl]benzenesulfonamide]
bioavailability: 22-40%
